Some test systems named below: MOLT-4 leukemia; NCI-H522 lung; OVCAR-3 ovarian; U251 CNS; KM20L2 colon; COLO 205 colon; PC-3 prostate; BT-549 breast; DU-145 prostate.
Common to all, as to assay: inhibition of tumour cell growth, NCI panel, 48 h

SMILES strings stand for the structures. “And” between values parts separate entries of the source, which are not always exact repeats. Equal values may be shown once.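 Exposure lasted 48 hours, with cells grown in 96-well plates and compounds tested at five concentrations. At the GI50, growth is halved. TGI: total growth inhibition.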

Consider `COc1cc(O)c(C(=O)/C=C/c2ccc(OC)c(OCc3ccccc3)c2)c(OC)c1`, for which the TGI in the test with MOLT-4 leukemia was above 100 µM; in the test on NCI-H522 lung, above 100 µM; with OVCAR-3 ovarian, above 100 µM; in the test on U251 CNS it was above 100 µM; in the test on KM20L2 colon it was above 100 µM; in the test with COLO 205 colon it was 2.09 µM.

With `O=C(CCc1ccccc1)CC1OC(=O)C(Cl)=C1Cl` (centres undefined), the TGI is above 100 µM in the test on MOLT-4 leukemia; 28.5 µM in the test with NCI-H522 lung; 38.1 µM in the test on OVCAR-3 ovarian; 30.4 µM in the test with U251 CNS; 26.5 µM in the test on KM20L2 colon; 30.9 µM with COLO 205 colon.

Turning to `N=C(CC(=O)Nc1ccccn1)c1ccccc1`, the TGI in the test on MOLT-4 leukemia, in the test with NCI-H522 lung, in the test with OVCAR-3 ovarian, in the test with U251 CNS, in the test with PC-3 prostate and with BT-549 breast was above 100 µM throughout. Also, the TGI with COLO 205 colon and in the test with DU-145 prostate was above 100 µM throughout.

With `CNC(=O)c1cc(Oc2ccc(NC(=O)Nc3cc(C(C)(C)C)nn3-c3ccc4ncccc4c3)c(F)c2)ccn1`, the GI50 is 1.58 µM and 2.08 µM in the test with MOLT-4 leukemia; 1.78 µM and 2.2 µM in the test on NCI-H522 lung; 2.36 µM and 2.21 µM with OVCAR-3 ovarian; 2.72 µM and 2.33 µM in the test on U251 CNS; 1.83 µM and 1.68 µM in the test on PC-3 prostate; 1.08 µM and 2.27 µM in the test with BT-549 breast. The GI50 in the test with COLO 205 colon was 0.459 µM and 0.62 µM; in the test on DU-145 prostate, 2.1 µM and 1.8 µM. Besides, the TGI in the test on MOLT-4 leukemia is 8.06 µM and 5.85 µM; in the test on NCI-H522 lung, 4.91 µM and 5.31 µM; in the test on OVCAR-3 ovarian, 7.96 µM and 6.35 µM; with U251 CNS, 8.87 µM and 7.22 µM; in the test on PC-3 prostate it was 6.78 µM and 5.17 µM; in the test on BT-549 breast, 4.58 µM and 5.65 µM. The TGI is 1.85 µM and 2.2 µM in the test with COLO 205 colon; 6.23 µM and 5.62 µM with DU-145 prostate.

For the compound `CN1CCN(c2ccc(NC3=CC(=O)c4ncncc4C3=O)cc2)CC1`, the GI50 with MOLT-4 leukemia is 0.289 µM; in the test on NCI-H522 lung, 0.597 µM; in the test with OVCAR-3 ovarian, 0.313 µM; with U251 CNS it was 0.722 µM; in the test on PC-3 prostate it was 0.289 µM; in the test on BT-549 breast it was 1.6 µM. Moreover, the GI50 in the test with COLO 205 colon was 1.93 µM; in the test on DU-145 prostate, 0.639 µM. The TGI in the test on NCI-H522 lung was determined as 1.72 µM; in the test on U251 CNS, 1.94 µM; with PC-3 prostate, 1.14 µM; in the test with BT-549 breast it was 3.04 µM; with COLO 205 colon, 4.07 µM; in the test with DU-145 prostate it was 1.88 µM.

For `O=C1/C(=C/c2ccc([N+](=O)[O-])o2)Oc2ccc(Cl)cc21`, the GI50 in the test on MOLT-4 leukemia is 2.05 µM; in the test on NCI-H522 lung it was 1.31 µM; with OVCAR-3 ovarian, 1.7 µM; with U251 CNS it was 2.02 µM; in the test on PC-3 prostate, 1.92 µM; with BT-549 breast it was 1.67 µM. Also, the GI50 is 1.89 µM with COLO 205 colon and 2.25 µM in the test on DU-145 prostate. Also, the TGI in the test with MOLT-4 leukemia was found to be 6.73 µM; in the test on NCI-H522 lung it was 2.79 µM; with OVCAR-3 ovarian, 3.19 µM; in the test on U251 CNS, 4.52 µM; with PC-3 prostate, 5.08 µM; in the test with BT-549 breast it was 3.32 µM. In addition, the values for the TGI with COLO 205 colon and with DU-145 prostate were 4.08 µM and 4.88 µM, respectively.

For `COc1ccc2c(c1)-c1c(c3cc(OC)ccc3n(CCN(C)C)c1=O)C2=O`, the GI50 is 0.174 µM with MOLT-4 leukemia; 0.0843 µM with NCI-H522 lung; 0.843 µM with OVCAR-3 ovarian; 0.443 µM with U251 CNS; 1.49 µM in the test on PC-3 prostate; 5.84 µM in the test with BT-549 breast. The figures for the GI50 in the test with COLO 205 colon and with DU-145 prostate were 0.461 µM and 0.565 µM, respectively. Moreover, the TGI in the test with MOLT-4 leukemia came to 0.953 µM; with NCI-H522 lung, 0.59 µM; in the test on OVCAR-3 ovarian, 4.73 µM; in the test with U251 CNS it was 6.77 µM; in the test on PC-3 prostate, 8.88 µM; in the test with BT-549 breast it was 12.9 µM. Further, the TGI in the test with COLO 205 colon came to 4.7 µM; in the test with DU-145 prostate, 3.54 µM.

Take `N#Cc1c(N)nc(N2CCOCC2)c(C#N)c1-c1c(Cl)cccc1Cl`: the GI50 with MOLT-4 leukemia was 5.1 µM; in the test on NCI-H522 lung it was 2.36 µM; in the test on OVCAR-3 ovarian it was 2.4 µM; in the test on U251 CNS, 3.89 µM; with PC-3 prostate it was 5.64 µM; with BT-549 breast it was 7 µM. Moreover, the GI50 was 7.14 µM in the test on COLO 205 colon and 16.9 µM in the test on DU-145 prostate. In addition, the TGI worked out at 86.5 µM in the test with MOLT-4 leukemia; 8.38 µM in the test with NCI-H522 lung; 6.37 µM in the test with OVCAR-3 ovarian; 18.5 µM in the test with U251 CNS; 31.1 µM in the test on PC-3 prostate; 79.7 µM in the test with BT-549 breast. In addition, the TGI with COLO 205 colon is 22.8 µM; in the test on DU-145 prostate, above 100 µM.

With `CC(C)(C)[Si](C)(C)OC1[C@@H](COC(=O)NC(=O)CCl)O[C@@H](n2cnc3c(N)ncnc32)[C@H]1O[Si](C)(C)C(C)(C)C` (some centres undefined), the GI50 in the test with MOLT-4 leukemia was 1.01 µM; with NCI-H522 lung, 0.122 µM; with OVCAR-3 ovarian, 2.66 µM; in the test on U251 CNS, 2.84 µM; in the test on PC-3 prostate, 3.15 µM; with BT-549 breast it was 0.922 µM. Moreover, the GI50 was 1.9 µM in the test with COLO 205 colon and 5.75 µM in the test with DU-145 prostate. Moreover, the TGI in the test on MOLT-4 leukemia was 2.22 µM; in the test with NCI-H522 lung, 0.312 µM; in the test on OVCAR-3 ovarian, 8.32 µM; with U251 CNS, 7.91 µM; in the test with PC-3 prostate it was 9.79 µM; with BT-549 breast, 1.85 µM. Besides, the TGI was 4.79 µM in the test on COLO 205 colon and 12 µM with DU-145 prostate.

As for `C[C@]12CCC(=O)C[C@@H]1CC[C@@H]1[C@@H]2CC[C@]2(C)[C@@H](OC(=O)N(CCCl)N=O)CC[C@@H]12`, the GI50 is 0.145 µM in the test with MOLT-4 leukemia; 2.48 µM in the test on NCI-H522 lung; 3.53 µM in the test on OVCAR-3 ovarian; 0.394 µM in the test with U251 CNS; 1.1 µM in the test on PC-3 prostate; 4.87 µM with BT-549 breast. The GI50 in the test on COLO 205 colon was 1.7 µM; with DU-145 prostate, 0.405 µM. Further, the TGI in the test on MOLT-4 leukemia is above 41.6 µM; in the test on NCI-H522 lung it was 20.4 µM; with OVCAR-3 ovarian it was 15.9 µM; in the test with U251 CNS it was 14 µM; with BT-549 breast, 21.7 µM; with COLO 205 colon, 4.72 µM. In addition, the TGI in the test with DU-145 prostate was 3.95 µM.

For the compound `COC1/C(=C\C(C)=O)c2ccccc2N1C(C)=O` (centres undefined), the TGI in the test on MOLT-4 leukemia, in the test with OVCAR-3 ovarian, in the test with U251 CNS, in the test on KM20L2 colon and with COLO 205 colon was above 100 µM in each case.

Values taken from PubChem BioAssay (NCI).
